For data set [1], the target named is T1, CRF receptor (Rattus norvegicus, UniProt P35353).
T1 construct: 100 μl of membrane suspension as prepared above to give a total reaction volume of 300 μl; from tissue; host or cells: rat cerebral cortex membrane homogenate
T1 sequence (P35353 24-415): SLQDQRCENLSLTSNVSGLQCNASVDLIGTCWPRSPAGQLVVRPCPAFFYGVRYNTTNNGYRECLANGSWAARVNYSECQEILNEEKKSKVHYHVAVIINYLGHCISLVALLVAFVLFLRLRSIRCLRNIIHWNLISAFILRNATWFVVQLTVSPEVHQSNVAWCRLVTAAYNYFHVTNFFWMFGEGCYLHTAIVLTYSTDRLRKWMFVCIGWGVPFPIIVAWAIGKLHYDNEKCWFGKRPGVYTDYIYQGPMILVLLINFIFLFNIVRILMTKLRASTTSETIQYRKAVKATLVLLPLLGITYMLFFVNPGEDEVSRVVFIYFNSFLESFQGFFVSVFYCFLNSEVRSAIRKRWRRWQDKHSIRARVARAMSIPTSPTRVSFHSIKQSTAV
In words: In vitro CRF receptor binding assay (competition with [125I] ovine CRF, rat cortex membranes). As to conditions: read-out: Inhibition Ki.

Structures are written as SMILES. A value given as a limit tells only on which side of the number the result lay.

A word on the Ki: it is a measure of affinity in units of concentration, obtained from inhibition or displacement. The term melting point denotes the temperature of the solid-liquid transition. On to `CCN(c1nc(C)cc(C)n1)c1ccc(OC)cc1SC` [compound 185, N-(4-methoxy-2-methylthiophenyl)-N-ethyl-4,6-dimethyl-2-pyrimidinamine], for which the melting point was 128 to 130 °C. The Ki in data set [1] is less than 500 nM.

Consider `CCN(c1nc(C)nc(Oc2ccccc2)n1)c1ccc(C(C)C)cc1Br` [compound 243], for which the melting point lay in the range of 140 to 142 °C. For the same compound, the Ki in data set [1] is 2000 to 10000 nM.

`CCN(c1nc(C)nc(N2CCSC2)n1)c1ccc(C(C)C)cc1Br` [compound 241] registered a melting point of 70 to 72 °C. For the same compound, the Ki in data set [1] was less than 500 nM.

In turn, `Cc1cc(Cl)c2c(C#N)cn(-c3ccc(C(C)C)cc3Br)c2n1` [Example 255] showed a melting point of 179.2 °C. Moreover, the Ki in data set [1] fell in the range of 501 to 2000 nM.

Compound `CCN(c1nc(C)cc(C)n1)c1c(OC)cc(OC)cc1OC` [compound 15] displayed a melting point of 115 to 116 °C. Moreover, in data set [1], the Ki was less than 500 nM.

The compound `CCN(c1nc(C)cc(C(=O)NCc2ccco2)n1)c1ccc(C(C)C)cc1Br` [compound 270] showed a melting point of 87 to 88 °C. In data set [1], the Ki is 2000 to 10000 nM.

For the compound `Cc1cc(N2CCCCC2)nc(N(C)c2ccc(C(C)C)cc2Br)n1` [compound 195], the melting point was in the range of 186 to 187 °C. The Ki in data set [1] was less than 500 nM.

The compound `CCN(c1nc(C)cc(C(=O)N2CCN(c3ccccc3OC)CC2)n1)c1ccc(C(C)C)cc1Br` [compound 268] came in with a melting point of 57 to 60 °C. In addition, in data set [1], the Ki is less than 500 nM.

`CCOC(=O)N1CCN(c2nc(C)nc(N(CC)c3c(Br)cc(OC)cc3OC)n2)CC1` [compound 244] returned a melting point of 65 to 70 °C. For the same compound, the Ki in data set [1] was in the range of 2000 to 10000 nM.

Take `Cc1cc(Cl)nc2c1c(C#N)cn2-c1ccc(C(C)C)cc1Br` [Example 262]: the melting point turned out to be 123.8 °C. For the same compound, in data set [1], the Ki was less than 500 nM.

`CCN(c1nc(C)cc(C)n1)c1c(OC)cc(OC)c(Br)c1Br` [compound 251, N-(2,3-Dibromo-4,6-dimethoxyphenyl)-N-ethyl-4,6-dimethyl-2-pyrimidinamine] displayed a melting point of 133 to 138 °C. In data set [1], the Ki lay within 501 to 2000 nM.

`CCOC(=O)c1ccc(N(CC)c2nc(C)cc(C)n2)c(SC)c1` [compound 184, N-(4-carboethoxy-2-methylthiophenyl)-N-ethyl-4,6-dimethyl-2-pyrimidinamine] returned a melting point of 99 to 100 °C. The Ki in data set [1] fell in the range of 501 to 2000 nM.

Turning to `CCN(c1nc(C)nc(N2CCOCC2)n1)c1c(Br)cc(OC)cc1OC` [compound 237], the melting point lay within 90 to 95 °C. Besides, the Ki in data set [1] was less than 500 nM.

`C=CCN(c1nc(C)cc(C)n1)c1c(Br)cc(OC)cc1OC` [compound 205] displayed a melting point of 88 to 90 °C. The Ki in data set [1] is less than 500 nM.

Consider `CCN(c1nc(C)cc(C)n1)c1c(O)cc(OC)cc1Br` [compound 230, N-(2-Bromo-6-hydroxy-4-methoxyphenyl)-N-ethyl-4,6-dimethyl-2-pyrimidinamine], for which the melting point is 157 to 160 °C. Further, the Ki in data set [1] was less than 500 nM.

On to `CCCCc1ccc(N(CCC)c2nc(C)cc(C)n2)c(Br)c1` [compound 20], for which the melting point fell in the range of 49 to 50 °C. In data set [1], the Ki was less than 500 nM.

Compound `Cc1cc(N2CCCC2)nc(N(C)c2ccc(C(C)C)cc2Br)n1` [compound 193] gave a melting point of 119 to 120 °C. For the same compound, in data set [1], the Ki is less than 500 nM.

In the case of `Cc1cc(C)c2c(C#N)cn(-c3ccc(C(C)C)cc3Br)c2n1` [Example 254], the melting point was found to be 105.8 °C. The Ki in data set [1] was less than 500 nM.

On to `C=CCN(c1nc(C)cc(N2CCOCC2)n1)c1ccc(C(C)C)cc1I` [compound 165, N-(2-iodo4-(1-methylethyl)phenyl)-N-allyl4-morpholino-6-methyl-2-pyrimidinamine], for which the melting point lay in the range of 109 to 112 °C. Further, in data set [1], the Ki is less than 500 nM.

Take `CCN(c1nc(C)cc(C)n1)c1ccccc1Br` [compound 5]: the melting point was in the range of 94 to 95 °C. For the same compound, in data set [1], the Ki is 501 to 2000 nM.

In the case of `CCN(c1nc(C)cc(C)n1)c1ccc(OC)cc1OC` [compound 7], the melting point fell in the range of 120 to 121 °C. In addition, the Ki in data set [1] was less than 500 nM.

The compound `CCN(c1nc(C)cc(N2CCOCC2)n1)c1ccc(C(C)C)cc1I` [compound 30, N-Ethyl-N-(2-iodo4-(1-methylethyl)phenyl)4-morpholinyl-6-methyl-2-pyrimidinamine] registered a melting point of 96 to 98 °C. Moreover, in data set [1], the Ki is less than 500 nM.

Compound `CCN(c1nc(C)cc(C(=O)N(C)C)n1)c1ccc(C(C)C)cc1Br` [compound 282] yielded a melting point of 80 to 82 °C. In addition, the inhibition constant (Ki) in data set [1] is less than 500 nM.

(Values after patent US6342503B1, “1N-alkyl-n-arylpyrimidinamines and derivatives thereof” (DuPont Pharmaceuticals Company, priority 1993, dated 2002).)
